According to patent publication US8557565B2, “Degradation of polycyclic aromatic hydrocarbons to render them available for biodegradation” (priority 1999, dated 2013):

Tests used:
[1] = Solubility and stability of O3 in aqueous and organic solvents; assay type: physicochemical; settings: bipolar solvent versus water or heptane alone
Procedure: The amount of oil to be employed in the bipolar solution was determined by its solubility in n-heptane and bipolar solvent. With an addition of 2.5 ml of distilled deionized water (about 5%) to a homogenous solution 50 ml of n-heptane and 50 ml of acetic acid, the solution was separated into two distinct phases: the n-heptane containing PAHs and other hydrophobic intermediates, and acetic acid phase (95% of acetic acid/5% DD water) containing the hydrophilic byproducts. In this example, about 480 mg/L of oil in the bipolar solvent was ozonated for different durations and the solution contents were analyzed accordingly. Both byproducts in the n-heptane phase and in the 95% acetic acid phase were analyzed by GC/FID, GC/FPD, and GC/MS after the separation. Ozone stability in different solvents: bipolar solvent, n-heptane, 95% acetic acid/5% DD water, and pure acetic acid were also tested by stopping after 20 minutes of ozonation and monitoring the ozone concentration immediately after.
Ozone was generated by an ozone generator (Model T-816, Polymetrics Corp.) from dry and filtered air at an applied voltage of 65V an air flow rate of 2 L/min. The concentration of ozone in the bipolar solvent was determined by absorbance at 270 nm with a spectrophotometer (HP 8452 UV-Vis spectrophotometer, Hewlett Packard Co.) using a predetermined extinction coefficient of 1955 M^−1 cm^−1. […]

[2] = Ozonation reaction kinetics of spilt oil constituents in bipolar solvent; assay type: physicochemical; settings: for tentative estimated pseudo-first-order rate constant k′: ozonation of spilt oil (480 mg/L) in n-heptane/acetic acid 1:1 bipolar solvent, about 20° C.; for behaviour under ozonation in the bipolar solvent: spilt oil constituents
Description: In this work example, an innovative treatment is developed for spilt oils from southern Kuwait desert that involves ozonation in a homogeneous solvent system. The solvent is constituted of miscible n-heptane and acetic acid (1:1 by volume), both of that are relatively inexpensive, environmentally benign, and biodegradable. The solvent system allows dissolution of oil in its non-polar heptane constituent, while the hydrophilic acetic acid keeps the progressively more polar intermediates and byproducts being formed from ozonation of oil in solution as the reaction continues. The n-heptane and acetic acid were chosen because of their relatively slow reaction rate with ozone (kO3[M^−1 s^−1] about 10^−3˜1 for alkanes and 3×10^−5 for acetic acid.
The amount of oil to be employed in the bipolar solution was determined by its solubility in n-heptane and bipolar solvent.
The pseudo-first order rate constants were evaluated by linear regression of all data according to the equations given below. The reaction of ozone with contaminants can be expressed as a second order reaction: −dCA/dt=kCA[O3] (1) where: dCA/dt=rate of reaction of contaminant k=reaction rate constant CA=concentration of contaminant [O3]=concentration of ozone
In the present of excess and constant ozone concentration, the rate law for the reaction can be considered as pseudo-first order: −dCA/dt=k′CA (2)
A glass batch reactor with a working volume of 300 mL was used. Mixing in the reactor was provided by a magnetic mixer operating at 250 rpm. […] Ozone was sparged into the reactor near the bottom through a glass dispersion tube (ACE glass Inc.) Reaction batches were stopped after 0.25, 0.5, 1, 2, 3, 4, 5, 10, 20, 40, 60, 120, and 180 minutes of ozonation. Residual ozone was removed from solution by purging with a gentle N2 stream for 1 min. Samples were kept in 2-mL vials and preserved at 5° C. if necessary prior to GC analysis. Qualitative and quantitative analyses of oil and oxidized oil were performed simultaneously. All samples were concentrated by a gentle stream of N2 gas to best retain the intermediates with lower molecular weights.

[3] = Saturated aqueous solution (dissolution equilibrium in water); settings: equilibrium overnight, 0.45-μm filtered
[4] = Mass and COD balance of PAH-packed column fed with ozonated water; settings: pyrene-loaded column, 4 h ozonation

O=[O+][O-] [Ozone]
solubility and stability of O3 [1]: higher solubility and stability

CCC(C)CCCC(C)CCCC(C)CCCC(C)C (stereo not drawn) [Phytane]
tentative estimated pseudo-first-order rate constant k′ [2]: 0.0178 s⁻¹ | tentative estimated pseudo-first-order rate constant k′ ([2]; listed as phytane): 0.0178 s⁻¹ | behaviour under ozonation in the bipolar solvent [2]: relatively resistant to ozonation

c1cc2ccc3cccc4ccc(c1)c2c34 [Pyrene]
saturated aqueous solution concentration [3]: 0.13 ppm | total amount degraded [4]: 0.365 mmol

CCCCCCCCCCCCCCCCCCCC [nC20, Icosane]
tentative estimated pseudo-first-order rate constant k′ [2]: 0.00198 s⁻¹ | tentative estimated pseudo-first-order rate constant k′ ([2]; listed as n-icosane): 0.00198 s⁻¹ | behaviour under ozonation in the bipolar solvent [2]: relatively resistant to ozonation
